Molecules are shown by their SMILES.

The target of assay [1] is T1, human ANO6 (Homo sapiens, UniProt Q4KMQ2).
T1 construct: expressed in transfected cells
T1 sequence (Q4KMQ2 1-931 isoform Q4KMQ2-2): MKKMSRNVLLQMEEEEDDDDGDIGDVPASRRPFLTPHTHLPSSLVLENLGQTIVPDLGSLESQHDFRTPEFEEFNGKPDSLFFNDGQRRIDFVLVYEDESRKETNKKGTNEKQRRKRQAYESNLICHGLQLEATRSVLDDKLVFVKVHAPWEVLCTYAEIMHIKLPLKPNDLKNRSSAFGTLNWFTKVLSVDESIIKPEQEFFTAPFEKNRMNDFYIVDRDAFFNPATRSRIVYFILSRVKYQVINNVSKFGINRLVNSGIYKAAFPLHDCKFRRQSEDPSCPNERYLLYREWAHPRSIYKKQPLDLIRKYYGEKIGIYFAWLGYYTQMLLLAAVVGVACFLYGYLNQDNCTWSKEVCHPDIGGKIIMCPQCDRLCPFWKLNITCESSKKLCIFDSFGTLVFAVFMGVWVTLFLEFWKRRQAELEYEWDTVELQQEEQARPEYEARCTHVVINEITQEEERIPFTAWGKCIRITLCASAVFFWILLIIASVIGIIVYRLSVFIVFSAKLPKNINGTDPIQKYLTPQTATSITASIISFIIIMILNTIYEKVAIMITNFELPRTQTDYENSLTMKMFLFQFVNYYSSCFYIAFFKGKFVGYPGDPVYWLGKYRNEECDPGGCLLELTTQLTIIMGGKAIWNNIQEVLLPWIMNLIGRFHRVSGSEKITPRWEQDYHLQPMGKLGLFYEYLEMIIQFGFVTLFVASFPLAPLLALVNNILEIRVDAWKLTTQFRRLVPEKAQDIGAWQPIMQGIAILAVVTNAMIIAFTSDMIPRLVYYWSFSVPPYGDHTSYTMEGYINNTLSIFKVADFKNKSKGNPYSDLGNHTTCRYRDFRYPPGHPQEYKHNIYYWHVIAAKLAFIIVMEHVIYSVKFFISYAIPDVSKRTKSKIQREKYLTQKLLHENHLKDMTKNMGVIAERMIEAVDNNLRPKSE
Description: YFP quenching assay (ANO6 ion channel activity). The assay is classed as cell-based. The following applies: 10 μM ionomycin; for inhibition at 1 µM: test compound 1 μM, read-out: Inhibition Level 1 μM; for inhibition at 30 µM: test compound 30 μM, read-out: Inhibition Level 30 μM. Put shortly:
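FRT cells stably expressing human ANO6 and YFP-H148Q/I152L/F46L, preincubated 10 min at 40° C with compounds (1% DMSO) in PBS. Quench read every 0.4 s after injecting 140 mM SCN- with 10 μM ionomycin; % inhibition from the 3.6–7.6 s fluorescence difference, normalised to no-ionomycin (100%) and ionomycin-only (0%) wells, duplicate or triplicate.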

Assay [2] concerns the target T1, human ANO6. Description: LACT C2 assay (phosphatidylserine scramblase function assay). The assay is classed as cell-based. To be noted: FRT cells expressing human ANO6, 10 μM ionomycin; for inhibition at 0.1 µM: test compound 100 nM, read-out: Inhibition Level 100 nM; for inhibition at 1 µM: test compound 1 μM, read-out: Inhibition Level 1 μM. Put shortly: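 FRT cells stably expressing human ANO6 were pretreated with compound (1% DMSO) for 10 min, then stimulated with 10 μM ionomycin for 10 min. Surface phosphatidylserine was stained with 500 nM Lact-C2-GFP and quantified by imaging. Inhibition was scaled between unstimulated (100%) and ionomycin-only (0%) controls, averaged over triplicates.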

As for `O=C(NC1CCCCCC1)c1cccc(Nc2ccc(-c3ccc(F)cc3)nn2)c1` [Compound A3], in assay [1], the inhibition at 1 µM was at least 60% and the inhibition at 30 µM is at least 60%. Moreover, in assay [2], the inhibition at 0.1 µM was under 30% and the inhibition at 1 µM was at least 60%.

Turning to `CC(C)c1ccc(CNC(=O)c2cccc(Nc3ccc(-c4ccccc4)nn3)c2)cc1` [Compound A53], in assay [1], the inhibition at 1 µM is at least 60% and the inhibition at 30 µM was at least 60%. Moreover, in assay [2], the inhibition at 0.1 µM was under 30% and the inhibition at 1 µM was under 30%.

As to `O=C(NCC1CCC1)c1cccc(Nc2ccc(-c3ccccc3)nn2)c1` [Compound 30, N-(cyclobutylmethyl)-3-[(6-phenylpyridazin-3-yl)amino]benzamide], in assay [1], the inhibition at 1 µM is at least 60% and the inhibition at 30 µM was at least 60%. In assay [2], the inhibition at 1 µM was in the range of 30 to 60%.

Consider `Cc1ccc(CNC(=O)c2cccc(Nc3ccc(-c4ccccc4)cc3)c2)o1` [Compound 3, 3-({[1,1′-biphenyl]-4-yl}amino)-N-[(5-methylfuran-2-yl)methyl]benzamide], for which, in assay [1], the inhibition at 1 µM is at least 60% and the inhibition at 30 µM was at least 60%. Besides, in assay [2], the inhibition at 0.1 µM was under 30% and the inhibition at 1 µM was at least 60%.

As for `O=C(NCc1ccccc1)c1cccc(Nc2ccc(-c3ccccc3)nn2)c1` [Compound A75], in assay [1], the inhibition at 1 µM fell in the range of 30 to 60% and the inhibition at 30 µM is at least 60%. Also, in assay [2], the inhibition at 0.1 µM was under 30% and the inhibition at 1 µM fell in the range of 30 to 60%.

Regarding `O=C(NCCc1cccc(F)c1)c1cccc(Nc2ncc(-c3ccccc3)cn2)c1` [Compound 90, N-[2-(3-fluorophenyl)ethyl]-3-[(5-phenylpyrimidin-2-yl)amino]benzamide], the inhibition at 1 µM in assay [1] was at least 60%; in assay [2], 30 to 60%.

On to `O=C(NCC1CCCCC1)c1cccc(Nc2ccc(-c3ccccc3)nn2)c1` [Compound 31, N-(cyclohexylmethyl)-3-[(6-phenylpyridazin-3-yl)amino]benzamide], for which, in assay [1], the inhibition at 1 µM was at least 60% and the inhibition at 30 µM is at least 60%. In addition, in assay [2], the inhibition at 0.1 µM is under 30% and the inhibition at 1 µM was at least 60%.

Regarding `CC(C)CCNC(=O)c1cccc(Nc2ccc(-c3ccccc3)nn2)c1` [Compound A70], in assay [1], the inhibition at 1 µM was at least 60% and the inhibition at 30 µM is at least 60%. Also, in assay [2], the inhibition at 0.1 µM lay in the range of 30 to 60% and the inhibition at 1 µM is at least 60%.

As for `Cc1ccc(CNC(=O)c2cccc(Nc3ccc(-c4cccnc4)nn3)c2)o1` [Compound 10, N-[(5-methylfuran-2-yl)methyl]-3-{[6-(pyridin-3-yl)pyridazin-3-yl]amino}benzamide], the results for the inhibition at 1 µM in assay [1] and in assay [2] were at least 60% and under 30%, respectively. Also, the inhibition at 30 µM in assay [1] is at least 60%.

Consider `Cc1ccc(CNC(=O)c2cccc(Nc3ccc(-c4cccc(F)c4)cc3)c2)o1` [Compound 57, 3-({3′-fluoro-[1,1′-biphenyl]-4-yl}amino)-N-[(5-methylfuran-2-yl)methyl]benzamide], for which the inhibition at 1 µM in assay [1] is at least 60%. In assay [2], the inhibition at 0.1 µM is under 30% and the inhibition at 1 µM was at least 60%.

In the case of `CCCOc1ccc(CNC(=O)c2cccc(Nc3ccc(-c4ccccc4)nn3)c2)cc1` [Compound A47], in assay [1], the inhibition at 1 µM was at least 60% and the inhibition at 30 µM was at least 60%. For the same compound, the inhibition at 0.1 µM in assay [2] is 30 to 60%.

As to `O=C(NC1CCN(Cc2ccccc2)CC1)c1cccc(Nc2ncc(-c3ccccc3)cn2)c1` [Compound 120, N-(1-benzylpiperidin-4-yl)-3-[(5-phenylpyrimidin-2-yl)amino]benzamide], in assay [1], the inhibition at 1 µM was under 30%. For the same compound, in assay [2], the inhibition at 0.1 µM was under 30% and the inhibition at 1 µM is under 30%.

Consider `Cc1ccccc1CNC(=O)c1cccc(Nc2ccc(-c3ccc(F)cc3)nn2)c1` [Compound A35], for which, in assay [1], the inhibition at 1 µM was at least 60% and the inhibition at 30 µM was at least 60%. Moreover, in assay [2], the inhibition at 0.1 µM is under 30% and the inhibition at 1 µM was under 30%.

For `Cc1ccc(CNC(=O)c2cccc(Nc3ccc(-c4ccccc4)nn3)c2)s1` [Compound 40, N-[(5-methylthiophen-2-yl)methyl]-3-[(6-phenylpyridazin-3-yl)amino]benzamide], in assay [1], the inhibition at 1 µM is at least 60% and the inhibition at 30 µM is at least 60%. Further, in assay [2], the inhibition at 0.1 µM is under 30% and the inhibition at 1 µM was at least 60%.

For `O=C(Nc1cccc(F)c1)c1cccc(Nc2ccc(-c3ccc(F)cc3)nn2)c1` [Compound A15], in assay [1], the inhibition at 1 µM is at least 60% and the inhibition at 30 µM was at least 60%. In addition, in assay [2], the inhibition at 0.1 µM is under 30% and the inhibition at 1 µM lay in the range of 30 to 60%.

Consider `CCCCNC(=O)c1cccc(Nc2ccc(-c3ccccc3)nn2)c1` [Compound A65], for which, in assay [1], the inhibition at 1 µM was at least 60% and the inhibition at 30 µM is at least 60%. In addition, in assay [2], the inhibition at 0.1 µM was under 30% and the inhibition at 1 µM is 30 to 60%.

In the case of `Cc1ccc(CNC(=O)c2cccc(Nc3cnc(-c4cccc(F)c4)cn3)c2)o1` [Compound 58, 3-{[5-(3-fluorophenyl)pyrazin-2-yl]amino}-N-[(5-methylfuran-2-yl)methyl]benzamide], the inhibition at 1 µM in assay [1] is at least 60%; in assay [2], under 30%.

Regarding `Cc1cccc(CNC(=O)c2cccc(Nc3ccc(-c4ccc(F)cc4)nn3)c2)c1` [Compound A5], in assay [1], the inhibition at 1 µM was at least 60% and the inhibition at 30 µM was at least 60%. In addition, in assay [2], the inhibition at 0.1 µM was under 30% and the inhibition at 1 µM was under 30%.

As for `Cc1ccc(-c2ccc(Nc3cccc(C(=O)NCc4ccc(Br)cc4)c3)nn2)cc1` [Compound A30], the inhibition at 30 µM in assay [1] is under 30%.

For the compound `Cc1ccc(CNC(=O)c2cccc(Nc3ccc(CC(C)C)nn3)c2)o1` [Compound 61, N-[(5-methylfuran-2-yl)methyl]-3-{[6-(2-methylpropyl)pyridazin-3-yl]amino}benzamide], the inhibition at 1 µM in assay [1] is under 30%.

Take `Cc1ccc(CNC(=O)c2cccc(Nc3cccnn3)c2)o1` [Compound 5, N-[(5-methylfuran-2-yl)methyl]-3-[(pyridazin-3-yl)amino]benzamide]: the inhibition at 30 µM in assay [1] fell in the range of 30 to 60%.

Regarding `CCN(CC)CCNC(=O)c1cccc(Nc2ncc(-c3ccccc3)cn2)c1` [Compound 96, N-[2-(diethylamino)ethyl]-3-[(5-phenylpyrimidin-2-yl)amino]benzamide], in assay [1], the inhibition at 1 µM is under 30%.

Regarding `O=C(NCc1ccccn1)c1cccc(Nc2ccc(-c3ccccc3)nn2)c1` [Compound 19, 3-[(6-phenylpyridazin-3-yl)amino]-N-[(pyridin-2-yl)methyl]benzamide], in assay [1], the inhibition at 1 µM is under 30% and the inhibition at 30 µM was at least 60%.

With `O=C(NC1CCCc2ccccc21)c1cccc(Nc2ccc(-c3ccccc3)nn2)c1` (stereo not shown) [Compound A56], in assay [1], the inhibition at 1 µM is 30 to 60% and the inhibition at 30 µM is at least 60%.

For the compound `Cc1ccc(CNC(=O)c2cccc(Nc3ncc(-c4ccc(C(F)(F)F)cc4)cn3)c2)o1` [Compound 100, N-[(5-methylfuran-2-yl)methyl]-3-({5-[4-(trifluoromethyl)phenyl]pyrimidin-2-yl}amino)benzamide], the inhibition at 1 µM in assay [1] is under 30%.

In the case of `Cc1ccc(CNC(=O)c2cccc(Nc3ccc(C4CCCO4)nn3)c2)o1` (stereo not shown) [Compound 86, N-[(5-methylfuran-2-yl)methyl]-3-{[6-(oxolan-2-yl)pyridazin-3-yl]amino}benzamide], in assay [1], the inhibition at 1 µM is under 30%.

As for `O=C(NCC1CCOCC1)c1cccc(Nc2ccc(-c3ccccc3)nn2)c1` [Compound 34, N-[(oxan-4-yl)methyl]-3-[(6-phenylpyridazin-3-yl)amino]benzamide], in assay [1], the inhibition at 1 µM is under 30% and the inhibition at 30 µM is at least 60%.

As to `Cc1ccc(CNC(=O)c2cccc(Nc3nccc(-c4ccccc4)n3)c2)o1` [Compound 89, N-[(5-methylfuran-2-yl)methyl]-3-[(4-phenylpyrimidin-2-yl)amino]benzamide], the inhibition at 1 µM in assay [1] is under 30%.

In general, inhibition refers to the share of the control response that was lost under treatment.

Source of the values: patent US20230080054A1 (ILDONG PHARMACEUTICAL CO., LTD., priority 2021, published 2023).
